{
  "source": "patent US9630943B2",
  "about": "“Tetrahydronaphthyl(thio) carboxamides” (BAYER CROPSCIENCE AG, priority 2012, dated 2017)",
  "key": {"[1]": {"assay": "Measurement of logP values by HPLC on reversed phase columns (EEC directive 79/831 Annex V.A8)", "type": "physicochemical", "conditions": "for LogP^[a] / LogP[a]: method [a]; for LogP[a]: HPLC on reversed phase columns"}, "Pyricularia oryzae": {"system": "Pyricularia oryzae", "type": "in vivo", "conditions": "rice plants, preventive spray, dose 500 ppm, grading 6 days after contamination"}, "Pyrenophora teres": {"system": "Pyrenophora teres", "assay": "In vivo preventive test on Pyrenophora teres (net blotch on barley)", "conditions": "barley plants, preventive spray, dose 100 ppm, grading 14 days after contamination", "procedure": "Barley plants (“Plaisant” variety), sown in starter cups on a 50/50 peat soil-pozzolana substrate and grown at 22° C., are treated at the 1-leaf stage (10 cm height) by spraying with the active ingredient prepared as described above. Plants, used as controls, are treated with the mixture of acetone/tween/DMSO/water not containing the active material. After 24 hours, the plants are contaminated by spraying the leaves with an aqueous suspension of Pyrenophorateres spores (12 000 spores per ml). The spores are collected from a 12-day-old culture. […] Grading (% of efficacy) is carried out 14 days after the contamination, in comparison with the control plants."}, "Phakopsora pachyrhizi": {"system": "Phakopsora pachyrhizi", "assay": "In vivo preventive test on Phakopsora pachyrhizi (soybeans)", "conditions": "soybean plants, preventive spray, dose 10 ppm, evaluated 7 days after inoculation"}, "Botrytis cinerea": {"system": "Botrytis cinerea", "assay": "In vivo preventive test on Botrytis cinerea (grey mould)", "conditions": "gherkin plants, preventive spray, dose 100 ppm, grading 4 to 5 days after contamination", "procedure": "Gherkin plants (“Vert petit de Paris” variety), sown in starter cups on a 50/50 peat soil-pozzolana substrate and grown at 24° C., are treated at the Z11 cotyledon stage by spraying with the active ingredient prepared as described above. Plants, used as controls, are treated with the mixture of acetone/tween/DMSO/water not containing the active material. After 24 hours, the plants are contaminated by spraying the cotyledons with an aqueous suspension of cryopreserved Botrytis cinerea spores (50 000 spores per ml). The spores are suspended in a nutrient solution composed of 10 g/L of PDB, 50 g/L of D-Fructose, 2 g/L of NH4NO3 and 1 g/L of KH2PO4. […] Grading (% of efficacy) is carried out 4 to 5 days after the contamination, in comparison with the control plants."}, "Sphaerotheca fuliginea": {"system": "Sphaerotheca fuliginea", "assay": "In vivo preventive test on Sphaerotheca fuliginea (powdery mildew on cucurbits)", "conditions": "gherkin plants, preventive spray, dose 100 ppm, grading 12 days after contamination", "procedure": "Gherkin plants (“Vert petit de Paris” variety), sown in starter cups on a 50/50 peat soil-pozzolana substrate and grown at 24° C., are treated at the Z11 cotyledon stage by spraying with the active ingredient prepared as described above. Plants, used as controls, are treated with the mixture of acetone/tween/DMSO/water not containing the active material. After 24 hours, the plants are contaminated by spraying the cotyledons with an aqueous suspension of Sphaerotheca fuliginea spores (100 000 spores per ml). The spores are collected from infected plants. […] Grading (% of efficacy) is carried out 12 days after the contamination, in comparison with the control plants."}, "Uromyces appendiculatus": {"system": "Uromyces appendiculatus", "assay": "In vivo preventive test on Uromyces appendiculatus (bean rust)", "conditions": "bean plants, preventive spray, dose 100 ppm, grading 11 days after contamination", "procedure": "Plants, used as controls, are treated with the mixture of acetone/tween/DMSO/water not containing the active material. After 24 hours, the plants are contaminated by spraying the leaves with an aqueous suspension of Uromyces appendiculatus spores (150 000 spores per ml). […] Grading (% of efficacy) is carried out 11 days after the contamination, in comparison with the control plants."}, "Septoria tritici": {"system": "Septoria tritici", "assay": "In vivo preventive test on Septoria tritici (leaf spot on wheat)", "conditions": "wheat plants, preventive spray, dose 100 ppm, grading 24 days after contamination", "procedure": "Wheat plants (“Scipion” variety), sown in starter cups on a 50/50 peat soil-pozzolana substrate and grown at 22° C., are treated at the 1-leaf stage (10 cm height) by spraying with the active ingredient prepared as described above. Plants, used as controls, are treated with the mixture of acetone/tween/DMSO/water not containing the active material. After 24 hours, the plants are contaminated by spraying the leaves with an aqueous suspension of cryopreserved Septoria tritici spores (500 000 spores per ml). […] Grading (% of efficacy) is carried out 24 days after the contamination, in comparison with the control plants."}, "Alternaria brassicae": {"system": "Alternaria brassicae", "assay": "In vivo preventive test on Alternaria brassicae (leaf spot on radish)", "conditions": "radish plants, preventive spray, dose 100 ppm, grading 6 days after contamination", "procedure": "Radish plants (“Pernod Clair” variety), sown in starter cups on a 50/50 peat soil-pozzolana substrate and grown at 17° C., are treated at the cotyledon stage by spraying with the active ingredient prepared as described above. Plants, used as controls, are treated with the mixture of acetone/tween/DMSO/water not containing the active material. After 24 hours, the plants are contaminated by spraying the cotyledons with an aqueous suspension of Alternaria brassicae spores (50 000 spores per ml). The spores are collected from a 15-day-old culture. The contaminated radish plants are incubated at 20° C. and at 100% relative humidity. Grading (% of efficacy) is carried out 6 days after the contamination, in comparison with the control plants."}},
  "data": [
    {"compound": "Cc1nc(C(F)F)c(C(=O)Nc2cccc3c2CCCC3(C)C)s1", "note": "[Example 3]", "values": [
      {"measurement": "LogP^[a]", "setting": "[1]", "result": "3.64^[a]"},
      {"measurement": "biological efficacy", "setting": "Pyricularia oryzae", "result": "≥ 90", "unit": "%"}
    ]},
    {"compound": "CC(C)C1CCCc2c(NC(=O)c3cn(C)nc3C(F)F)cccc21", "note": "(stereo not drawn) [Example 98]", "values": [
      {"measurement": "biological efficacy", "setting": "Pyrenophora teres", "result": "≥ 90", "unit": "%"},
      {"measurement": "LogP[a]", "setting": "[1]", "result": "3.73^[a]"},
      {"measurement": "biological efficacy", "setting": "Phakopsora pachyrhizi", "result": "≥ 70", "unit": "%"},
      {"measurement": "biological efficacy", "setting": "Botrytis cinerea", "result": "≥ 90", "unit": "%"}
    ]},
    {"compound": "Cc1nc(C(F)F)c(C(=S)Nc2cccc3c2CCC(C)(C)C3)s1", "note": "[Example 97, 4-(difluoromethyl)-N-(6,6-dimethyl-5,6,7,8-tetrahydronaphthalen-1-yl)-2-methyl-1,3-thiazole-5-carbothioamide]", "values": [
      {"measurement": "chromatographic logP", "setting": "[1]; pH 2.7", "result": 4.16},
      {"measurement": "biological efficacy", "setting": "Sphaerotheca fuliginea", "result": "≥ 80", "unit": "%"}
    ]},
    {"compound": "CCCC1(C)CCCc2c(NC(=O)c3cn(C)nc3C(F)F)cccc21", "note": "(stereo not drawn) [Example 94]", "values": [
      {"measurement": "LogP^[a]", "setting": "[1]", "result": "4.08^[a]"},
      {"measurement": "biological efficacy", "setting": "Uromyces appendiculatus", "result": "≥ 80", "unit": "%"},
      {"measurement": "biological efficacy", "setting": "Septoria tritici", "result": "≥ 70", "unit": "%"}
    ]},
    {"compound": "CCCC1CCc2c(NC(=O)c3cn(C)nc3C(F)F)cccc2C1C", "note": "(mixture of isomers) [Example 95]", "values": [
      {"measurement": "LogP[a]", "setting": "[1]", "result": "4.18^[a]"},
      {"measurement": "biological efficacy", "setting": "Botrytis cinerea", "result": "≥ 80", "unit": "%"}
    ]},
    {"compound": "CCC1(CC)CCCc2c(NC(=O)c3cn(C)nc3C(F)F)cccc21", "note": "[Example 93]", "values": [
      {"measurement": "LogP^[a]", "setting": "[1]", "result": "4.03^[a]"}
    ]},
    {"compound": "Cc1nn(C)c(C)c1C(=O)Nc1cccc2c1CCC(C)(C)C2C", "note": "(racemic) [Example 20]", "values": [
      {"measurement": "LogP^[a]", "setting": "[1]", "result": "3.25^[a]"}
    ]},
    {"compound": "Cc1nn(C)c(F)c1C(=O)Nc1cccc2c1CC(C)(C)CC2", "note": "[Example 26]", "values": [
      {"measurement": "LogP^[a]", "setting": "[1]", "result": "3.31^[a]"}
    ]},
    {"compound": "CC1CCc2cccc(NC(=O)c3cn(C)nc3C(F)F)c2C1(C)O", "note": "(racemic) [Example 14]", "values": [
      {"measurement": "LogP^[a]", "setting": "[1]", "result": "3.96^[a]"}
    ]},
    {"compound": "CC1(C)CCCc2c(NC(=O)c3ccoc3C(F)F)ccc(F)c21", "note": "[Example 51]", "values": [
      {"measurement": "LogP^[a]", "setting": "[1]", "result": "4.06^[a]"}
    ]},
    {"compound": "CC1(C)CCc2c(cccc2NC(=S)c2ccoc2C(F)F)C1", "note": "[Example 96]", "values": [
      {"measurement": "LogP[a]", "setting": "[1]", "result": "4.39^[a]"},
      {"measurement": "biological efficacy", "setting": "Alternaria brassicae", "result": "≥ 70", "unit": "%"}
    ]},
    {"compound": "CCON=C1CCCc2c(NC(=O)c3sc(C)nc3CC)cccc21", "note": "[Example 81]", "values": [
      {"measurement": "LogP^[a]", "setting": "[1]", "result": "3.37^[a]"}
    ]},
    {"compound": "Cc1nc(C(F)F)c(C(=O)Nc2cccc3c2CCC(C)(C)C3C)s1", "note": "(racemic) [Example 18]", "values": [
      {"measurement": "LogP^[a]", "setting": "[1]", "result": "4.09^[a]"}
    ]},
    {"compound": "Cc1nn(C)c(F)c1C(=O)Nc1cccc2c1CCC(C)C2C", "note": "(mixture of isomers) [Example 13]", "values": [
      {"measurement": "LogP^[a]", "setting": "[1]", "result": "3.41^[a]"}
    ]},
    {"compound": "CC1(C)CCCc2c(NC(=O)c3nccnc3C(F)(F)F)ccc(F)c21", "note": "[Example 52]", "values": [
      {"measurement": "LogP^[a]", "setting": "[1]", "result": "3.96^[a]"}
    ]}
  ]
}
